Measurements from US20140200142A1, “TREATMENT OF STORED TUBERS WITH AEROSOLS OF HIGHER ALCOHOLS” (1,4 Group, Inc., priority 2013, published 2014).

What was measured:
[1] = test system: existing sprouts on post-dormant potatoes with peeps and sprouts extant; assay: Comparison of thermofogged sprout suppressing chemicals for "burn" of existing sprouts (Example IV); format: in vivo; parameters: key to Burn “old” / Burn “new”: +: indicates fair effectiveness; ++: indicates good effectiveness; +++: indicates excellent effectiveness; A minus (−) sign indicates no noticeable effect; a +/− sign indicates only partial effectiveness at a minimal level; settings: for Burn “old”: effect upon old sprouts, up to nine months old; for Burn “old” / Burn “new”: thermofogged at comparable dosages; for Burn “new”: newly emerged sprouts and peeps, generally less than a month
Protocol: Various sprout suppressing chemicals were compared for their ability to suppress existing sprouts on post-dormant potatoes with peeps and sprouts extant. […] Clove oil applied at a predetermined dosage gave a “burn” effectiveness of 46% of existing peeps while 1-nonanol at a dosage one-fourth as great gave a 50% “burn.” At a one-half dosage, 1-nonanol provided a 100% “burn” effectiveness within 24 hours after treatment. In the above table “Burn old” refers to the effect upon old sprouts, which included sprouts up to nine months old, these being generally more difficult to desiccate, while “burn new” refers to newly emerged sprouts and peeps, generally less than a month or so in existence.

[2] = test system: peeps and sprouts on stored potatoes; assay: Thermofog treatment of stored potatoes with 1-nonanol to determine sprout destruction (Example II); format: in vivo
Protocol: Stored potatoes in a small open container were treated with 1-nonanol (n-nonyl alcohol) via a thermofogger to determine sprout destruction. The thermofogger was operated at an aerosol chamber temperature of about 500° F. A good stable aerosol was produced. The alcohol was applied at a dosage of 8 ml for 2 kg of potatoes. The system was open so that the actual dosage reaching the potatoes was considerably less than the fogged amount. The potatoes were exposed to the thermofog for approximately one minute, after which the treatment containers (1-gallon bottles) were sealed and held at 53° F. for 24 hours before being connected to normal storage ventilation. In a first test the potatoes had white “peeps” showing from the eyes before treatment. […] In a second test the potatoes were treated with 1-nonanol at the same fogging temperature and dosage for the same period of time to achieve the same application dosage as in Example I. The potatoes in this storage had sprouts averaging in excess of about 2 cm in length. In this experiment, potatoes with very long sprouts, some up to eight cm or more, were treated with 1, 2, and 4 times sequentially with full strength nonanol. […] This “spray-paint” method was thus used to try to bring the total amount (rate) of nonanol up to a level capable of killing large sprouts as well as peeps, a necessity in commercial settings where sprouts of all sizes exist. It required 4 applications to reach the level at which these large sprouts were completely killed. […] While this was a small scale test, a whole storage full of potatoes in this condition would likely lead to secondary decays. Single or even double applications didn't reach a level of nonanol high enough to completely kill these large-sized sprouts.

peeps and sprouts = assay: Fogging of 1-nonanol versus clove oil, "burning" peeps and sprouts (Example III); format: in vivo, potatoes; settings: short duration, similar dosages
potatoes = assay: 1-octanol thermofog on cold versus 53° F. potatoes, condensation damage (Example V); format: in vivo
Protocol: An experiment was performed wherein 1-octanol at various dosages were applied to potatoes wherein the temperature of the potatoes was at about 36° F. The 1-octanol was applied via an electric thermofogger at a fog temperature within the fogger of about 500° F. to obtain a stable aerosol. The potatoes were examined about 24 hours after treatment. […] The potatoes were cut open at the dark spots. Damage to the flesh of the potatoes existed to a depth of about 5 mm to 25 mm. Potato flesh was otherwise undamaged except under the dark spots.

stored potatoes = settings: continuous vapors by wicking over an extended period; cited from earlier work

CCCCCCCCCCO [1-Decanol, 1-decanol]
Burn “old” [1]: ++
Burn “new” [1]: ++

CCCCCCCCCO [1-Nonanol, 1-nonanol]
effect on white “peeps” ([2]; first test, 8 ml for 2 kg of potatoes fogged, open system, inspected about 24 hours after treatment): burned to a dark color and were inactivated
damage to potato flesh adjacent the eyes ([2]; first test, about 24 hours after treatment): without any damage to potato flesh adjacent the eyes
negative side effect observed ([2]; second test, 4 applications on large sprouts): wet, slimy, sprout rot
applications required to completely kill large sprouts ([2]; second test, sprouts up to eight cm or more, sequential full strength applications): 4 applications
effectiveness in “burning” peeps and sprouts relative to clove oil (peeps and sprouts): about four times as effective as clove oil
“burn” effectiveness of existing peeps ([1]; dosage one-fourth as great as the clove oil dosage): 50%
Burn “old” [1]: +++
Burn “new” [1]: +++
“burn” effectiveness of existing peeps ([1]; one-half dosage, within 24 hours after treatment): 100%

CCCCCCCCO [1-Octanol, 1-octanol]
Burn “old” [1]: ++
Burn “new” [1]: +++
depth of damage to the flesh at the dark spots (potatoes; potato, in vivo, 24 h): 5-25 mm
condition of potato skin (potatoes; potatoes at about 36° F., examined about 24 hours after treatment): large dark damaged spots
injury to potato skin or flesh (potatoes; potatoes held at 53° F., similar dosage, fogging temperature and rate): did not show injury to the potato skin or to its flesh

CC(CCO)CC(C)(C)C (centres unmarked) [3,5,5-trimethyl hexanol]
damage to potato flesh (stored potatoes): damaged potato flesh, especially near affected eyes
effect on existing sprouts (stored potatoes): strongly “burned” (desiccated) existing sprouts

CCCCCOC(C)=O [AmylAcetate, reference compound]
Burn “new” [1]: ++

CCCCCCCCCCCCO [Dodecanol]
Burn “old” [1]: −\+
Burn “new” [1]: −

CCCCCCO [Hexanol]
Burn “old” [1]: +
Burn “new” [1]: ++
